What was measured:
[1] = test system: Puccinia recondita f. Sp. Tritici; test: Puccinia recondita f. sp. tritici / wheat / leaf disc preventative (brown rust); format: in vivo; conditions: foliar, 200 ppm in the applied formulation, wheat leaf segments cv. Kanzler, preventative (inoculated 1 day after application), compared to untreated, read-out: disease control
Summary of the method: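 Compound, diluted from DMSO solution into aqueous 0.025% Tween20, is sprayed at 200 ppm onto cut wheat segments (cv. Kanzler) placed on water agar. One day on, segments receive a fungal spore suspension and are incubated at 19° C., 75% rh, 12 h photoperiod, with % control vs untreated scored at 7–9 days.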

[2] = test system: Glomerella lacenarium (Colletotrichum lagenarium); test: Glomerella lagenarium liquid culture / cucumber / preventative (anthracnose); format: cell-based; conditions: Colletotrichum orbiculare; 20 ppm in the applied formulation; liquid culture (PDB), growth inhibition measured photometrically 3 to 4 days after application; compared to untreated; read-out: disease control
Summary of the method: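 Conidia from cryogenic storage were mixed into potato dextrose broth. This was added to compound diluted from DMSO into 0.025% Tween20, tested at 20 ppm. Plates were incubated in the dark at 24 °C and 96% relative humidity, and growth was read photometrically after 2–7 days as % activity versus untreated check.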

[3] = test system: Puccinia recondita f. Sp. Tritici; test: Puccinia recondita f. sp. tritici / wheat / leaf disc curative (brown rust); format: in vivo; conditions: foliar, 24 h, 200 ppm in the applied formulation, wheat leaf segments cv. Kanzler, curative (applied 1 day after inoculation), compared to untreated, read-out: disease control
Summary of the method: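 Wheat cv. Kanzler leaf segments on agar were inoculated with fungal spore suspension, held dark at 19° C and 75% RH, then sprayed 1 day later with formulated compound diluted in water. Incubation continued at 19° C, 75% RH, 12 h light/12 h dark; percent disease control versus untreated was scored 6 to 8 days after application.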

[4] = test system: Phakopsora pachyrhizi; test: Phakopsora pachyrhizi / soybean / leaf disc preventative (Asian soybean rust); format: in vivo; conditions: foliar, 200 ppm in the applied formulation, soybean leaf disks, compared to untreated, read-out: disease control
Experimental: Leaf disks or leaf segments of various plant species are cut from plants grown in a greenhouse. The cut leaf disks or segments are placed in multiwell plates (24-well format) onto water agar. The leaf disks are sprayed with a test solution before (preventative) or after (curative) inoculation. Compounds to be tested are prepared as DMSO solutions (max. 10 mg/ml) which are diluted to the appropriate concentration with 0.025% Tween20 just before spraying. The inoculated leaf disks or segments are incubated under defined conditions (temperature, relative humidity, light, etc.) according to the respective test system. A single evaluation of disease level is carried out 3 to 14 days after inoculation, depending on the pathosystem. Percent disease control relative to the untreated check leaf disks or segments is then calculated.
Soybean leaf disks are placed on water agar in multiwell plates (24-well format) and sprayed with the formulated test compound diluted in water. One day after application leaf discs are inoculated by spraying a spore suspension on the lower leaf surface. After an incubation period in a climate cabinet of 24-36 hours in darkness at 20° C. and 75% rh leaf disc are kept at 20° C. with 12 h light/day and 75% rh. The activity of a compound is assessed as percent disease control compared to untreated when an appropriate level of disease damage appears in untreated check leaf disks (12 to 14 days after application).
The following compounds at 200 ppm in the applied formulation give at least 80% disease control in this test when compared to untreated control leaf disks under the same conditions, which show extensive disease development.

CCC(C)C(=O)NCc1ccc(-c2noc(C(F)(F)F)n2)c(F)c1 (centres unmarked) [Compound 1.39, N-[[3-fluoro-4-[5-(trifluoromethyl)-1,2,4-oxadiazol-3-yl]phenyl]methyl]-2-methyl-butanamide]
≥ 80%: pest or weed control at 200 ppm [1] | inhibition of growth at 20 ppm [2] | pest or weed control at 200 ppm [3] | pest or weed control at 200 ppm [4]

CCC(C)C(=O)NCc1ccc(-c2noc(C(F)(F)F)n2)cc1F (centres unmarked) [Compound 1.41, N-[[2-fluoro-4-[5-(trifluoromethyl)-1,2,4-oxadiazol-3-yl)phenyl]methyl]-2-methyl-butanamide]
≥ 80%: pest or weed control at 200 ppm [1] | inhibition of growth at 20 ppm [2] | pest or weed control at 200 ppm [3] | pest or weed control at 200 ppm [4]

O=C(CC(F)(F)F)NCc1ccc(-c2noc(C(F)(F)F)n2)c(F)c1 [Compound 1.44, 3,3,3-trifluoro-N-[[3-fluoro-4-[5-(trifluoromethyl)-1,2,4-oxadiazol-3-yl]phenyl]methyl]propanamide]
≥ 80%: pest or weed control at 200 ppm [1] | inhibition of growth at 20 ppm [2] | pest or weed control at 200 ppm [3] | pest or weed control at 200 ppm [4]

O=C(CC(F)(F)F)NCc1ccc(-c2noc(C(F)(F)F)n2)cc1F [Compound 1.46, 3,3,3-trifluoro-N-[[2-fluoro-4-[5-(trifluoromethyl)-1,2,4-oxadiazol-3-yl]phenyl]methyl]propanamide]
≥ 80%: pest or weed control at 200 ppm [1] | inhibition of growth at 20 ppm [2] | pest or weed control at 200 ppm [3] | pest or weed control at 200 ppm [4]

CC(=O)NCc1ccc(-c2noc(C(F)(F)F)n2)c(F)c1 [Compound 1.47, N-[[3-fluoro-4-[5-(trifluoromethyl)-1,2,4-oxadiazol-3-yl]phenyl]methyl]acetamide]
≥ 80%: pest or weed control at 200 ppm [1] | inhibition of growth at 20 ppm [2] | pest or weed control at 200 ppm [3] | pest or weed control at 200 ppm [4]

CC(=O)NCc1ccc(-c2noc(C(F)(F)F)n2)cc1F [Compound 1.48, N-[[2-fluoro-4-[5-(trifluoromethyl)-1,2,4-oxadiazol-3-yl]phenyl]methyl]acetamide]
≥ 80%: pest or weed control at 200 ppm [1] | inhibition of growth at 20 ppm [2] | pest or weed control at 200 ppm [3] | pest or weed control at 200 ppm [4]

CC(C)C(=O)NCc1ccc(-c2noc(C(F)(F)F)n2)c(F)c1F [Compound 1.49, N-[[2,3-difluoro-4-[5-(trifluoromethyl)-1,2,4-oxadiazol-3-yl]phenyl]methyl]-2-methyl-propanamide]
≥ 80%: pest or weed control at 200 ppm [1] | inhibition of growth at 20 ppm [2] | pest or weed control at 200 ppm [3] | pest or weed control at 200 ppm [4]

CCCC(=O)NCc1ccc(-c2noc(C(F)(F)F)n2)c(F)c1F [Compound 1.51, N-[[2,3-difluoro-4-[5-(trifluoromethyl)-1,2,4-oxadiazol-3-yl]phenyl]methyl]butanamide]
≥ 80%: pest or weed control at 200 ppm [1] | inhibition of growth at 20 ppm [2] | pest or weed control at 200 ppm [3] | pest or weed control at 200 ppm [4]

COCC(=O)NCc1ccc(-c2noc(C(F)(F)F)n2)c(F)c1F [Compound 1.56, N-[[2,3-difluoro-4-[5-(trifluoromethyl)-1,2,4-oxadiazol-3-yl]phenyl]methyl]-2-methoxy-acetamide]
≥ 80%: pest or weed control at 200 ppm [1] | inhibition of growth at 20 ppm [2] | pest or weed control at 200 ppm [3] | pest or weed control at 200 ppm [4]

O=C(CC(F)(F)F)NCc1ccc(-c2noc(C(F)(F)F)n2)c(F)c1F [Compound 1.63, N-[[2,3-difluoro-4-[5-(trifluoromethyl)-1,2,4-oxadiazol-3-yl]phenyl]methyl]-3,3,3-trifluoro-propanamide]
≥ 80%: pest or weed control at 200 ppm [1] | inhibition of growth at 20 ppm [2] | pest or weed control at 200 ppm [3] | pest or weed control at 200 ppm [4]

CC(=O)NCc1ccc(-c2noc(C(F)(F)F)n2)c(F)c1F [Compound 1.65, N-[[2,3-difluoro-4-[5-(trifluoromethyl)-1,2,4-oxadiazol-3-yl]phenyl]methyl]acetamide]
≥ 80%: pest or weed control at 200 ppm [1] | inhibition of growth at 20 ppm [2] | pest or weed control at 200 ppm [3] | pest or weed control at 200 ppm [4]

Source: patent US10501425B2, “Microbiocidal oxadiazole derivatives” (SYNGENTA PARTICIPATIONS AG, priority 2015, dated 2019)
